Source: paper PMC10593742, “Binding mechanism and biological effects of flavone DYRK1A inhibitors for the design of new antidiabetics” (Scientific Reports, 2023)
Like-named read-outs stand apart in the source and are kept apart here.

Assays:
[1] = system: INS-1E cells; assay: Insulin expression level by flow cytometry, INS-1E; type: cell-based, rat; conditions: for effect on insulin level over 12 days: compound alone, 24 h incubation; for insulin level: harmine 1 μM
[2] = system: MIN6 cells; assay: Insulin expression level by flow cytometry, MIN6; type: cell-based, mouse; conditions: for effect on insulin level over 12 days: MIN6, compound alone, 24 h incubation
[3] = system: MIN6 cells; assay: MIN6 cell proliferation by Ki-67 staining and flow cytometry; type: cell-based, mouse; conditions: for Ki-67-positive cells, combination with GLP-1 / Ki-67-positive cells, combination with LY364947: MIN6; for Ki-67-positive cells, combination with GLP-1: GLP-1 5 nM
[4] = system: hiPSC-derived beta cells organoids; assay: Glucose-stimulated insulin secretion by ELISA, hiPSC-derived pancreatic islet organoids; type: cell-based, human; conditions: 24 h incubation; for insulin secretion by organoids (GSIS, ELISA): compound alone
Experimental: Differentiation of hiPSC into iPSC-derived β-cell islets was carried out following the protocol established by Pellegrini et al.[50]. A day before differentiation, 1 × 10^4 cells were seeded on coated with Geltrex (Gibco) 12 wells plate in Essential 8 medium (Gibco) with Y-27632 10 µM (Abcam). The appropriate culture media and required components based on the protocol of Pellegrini with modifications, as published in Barzowska et al.[37].
Cells and organoids were homogenized in lysis buffer.
Figure 9 Quercetin and TGFβ inhibitor—LY364947 collectively support insulin release from hiPSC-derived pancreatic islet organoids. (A) The analysis of insulin secretion by ELISA assay. […] The organoids were immunostained for insulin (green) and cytoskeleton (red). The nuclei were stained with Hoechst 33258 (blue). Scale bars, 20 μm.

[5] = target: T1, DYRK1A (Homo sapiens, UniProt Q13627); assay: Cook activity assay (DYRK1A-catalyzed phosphorylation of DYRKtide, ADP production linked to PK/LDH NADH oxidation); type: biochemical; conditions: for IC50: read-out: IC50 (DYRK1A inhibition)
T1 construct: In the assay, the truncated DYRK1A protein restricted to the kinase domain (126–490) was used; made in house; host or cells: E. coli LOBSTR strain

[6] = system: INS-1E cells; assay: MTT cytotoxicity and cell survival assay, INS-1E; conditions: for concentration range with increased cell viability (MTT): 24 h; for cytotoxic effect, combination with LY364947 or GLP-1: LY364947 […] or GLP-1 5 nM, gossypin […], rutin 1 μM
[7] = system: DYRK1A-dependent CyclinD1 phosphorylation; assay: CyclinD1 phosphorylation profile in transfected HEK293T cells (Western blot); type: cell-based; conditions: 10 μM, 6 h; HEK293T co-transfected with HA-CyclinD1 and Flag-DYRK1A
[8] = system: DYRK1A-related NFAT signaling; assay: NFAT activity luciferase assay in HEK293T NFAT cells; type: cell-based; conditions: for increase in Renilla luciferase activity (NFAT reporter): 10 μM, 3 h pre-treatment, then PMA/IM 5 h, relative to DMSO
[9] = LogP determination by the shake-flask method; type: physicochemical; conditions: n-octanol/PBS
[10] = system: MIN6 cells; assay: MTT cytotoxicity and cell survival assay, MIN6; conditions: MIN6, 24 h
[11] = system: MIN6 cells; assay: Glucose-stimulated insulin secretion (GSIS) quantified by ELISA, MIN6; conditions: GLP-1 5 nM
[12] = system: DYRK1A-controlled calcineurin/NFAT pathway; assay: NFAT translocation assay (NFAT-GFP, mCherry-DYRK1A) in HEK293T cells; type: cell-based; conditions: 10 μM, 3 h, then IM 5 μM 1 h
[13] = 5 μM, 10 μM and 20 μM of compound, DMSO = 100%
[14] = kinase domain (126–490), compound 20 nM–200 μM, ATP (128 µM)

Compound	increase in proliferation rate (Ki-67-positive cells) vs control ([3]; MIN6, compound alone)	effect on residual DYRK1A activity [5, 13]	concentration range with increased cell viability (MTT) [6]	CyclinD1 phosphorylation (p-CyclinD1 at Thr289) [7]	increase in Renilla luciferase activity (NFAT reporter) [8]	IC50 [5, 14] [µM]	concentration range with increased cell viability (MTT) [10]	other results
c1ccc(-c2[nH]ncc2-c2ccnc3ccccc23)nc1 [LY364947]	up to 5%							effect on insulin level over 12 days [1]: less prominent but constant effect over the 12 days; effect on insulin level over 12 days [2]: less prominent but constant effect over the 12 days; insulin secretion by organoids (GSIS, ELISA) [4]: less pronounced effect
O=c1cc(-c2ccc(O)cc2)oc2cc(O[C@@H]3O[C@H](CO)[C@@H](O)[C@H](O)[C@H]3O)cc(O)c12 [apigetrin, 5-hydroxy-2-(4-hydroxyphenyl)-7[(2S,3R,4S,5S,6R)3,4,5-trihydroxy-6-(hydroxymethyl)oxan-2-yl]oxychromen-4-one]		no influence on DYRK1A activity						
O=c1cc(-c2ccccc2)oc2cc(O)c(O)c(O)c12 [baicalein, 5,6,7-trihydroxy-2-phenylchromen-4-one]	5%	decreased DYRK1A activity dose-dependently	0.1 to 2.5 µM	significantly reduced CyclinD1 phosphorylation	threefold	3.6	0.1 to 2.5 µM	Ki-67-positive cells, combination with GLP-1 ([3]; control cells 32%): 55%; Ki-67-positive cells, combination with LY364947 ([3]; control cells 32%): 48%; logP at 15 min [9]: 2.55; insulin secretion (GSIS, ELISA), combination with GLP-1 [11]: improve insulin secretion
COc1cc(-c2cc(=O)c3c(O)c(OC)c(OC)c(OC)c3o2)cc(OC)c1OC [gardenin A, 5-hydroxy-6,7,8-trimethoxy-2-(3,4,5-trimethoxyphenyl)chromen-4-one]		no influence on DYRK1A activity						
O=c1c(O)c(-c2ccc(O)c(O)c2)oc2c(O[C@@H]3O[C@H](CO)[C@@H](O)[C@H](O)[C@H]3O)c(O)cc(O)c12 [gossypin, 2-(3,4-dihydroxyphenyl)-3,5,7-trihydroxy-8-[(2S,3R,4S,5S,6R)-3,4,5-trihydroxy-6-(hydroxymethyl)oxan-2-yl]oxychromen-4-one]		decreased DYRK1A activity dose-dependently	did not influence cell viability	significantly reduced CyclinD1 phosphorylation	twofold	1.4	did not influence cell viability	cytotoxic effect, combination with LY364947 or GLP-1 [6]: slight cytotoxic effect; LogP [9]: negative logP
COc1ccc2c(c1)[nH]c1c(C)nccc12 [harmine]	about 20%		1 to 2.5 µM				0.01 to 10 µM	effect on the GLP-1-induced increase in insulin production level, administered simultaneously with GLP-1 ([1]; GLP-1 5 nM): attenuated; insulin level ([1]; day 1, control 10%): 37%; insulin level ([1]; day 5, control 28%): 34%; insulin level ([2]; MIN6, day 12, control 24%, harmine 1 μM): 37%; effect on the GLP-1-induced increase in insulin production level, administered simultaneously with GLP-1 ([2]; MIN6, GLP-1 5 nM): attenuated; nuclear translocation of NFAT-GFP despite mCherry-DYRK1A overexpression [12]: induced nuclear translocation of NFAT-GFP; Ki-67-positive cells ([3]; MIN6, compound alone, control cells 32%): 50%; Ki-67-positive cells, combination with GLP-1 ([3]; control cells 32%): 55%; Ki-67-positive cells, combination with LY364947 ([3]; control cells 32%): 58%; insulin secretion by organoids (GSIS, ELISA), with LY364947 addition [4]: enhanced by LY364947 addition; insulin secretion by organoids (GSIS, ELISA) [4]: highest insulin secretion level; logP at 15 min [9]: 3.24; concentrations at which mild toxicity was observed (MTT) [10]: higher than 50 μM
O=c1c(O)c(-c2ccc(O)cc2)oc2c(O)c(O)cc(O)c12 [herbacetin, 3,5,7,8-tetrahydroxy-2-(4-hydroxyphenyl)chromen-4-one]		decreased DYRK1A activity dose-dependently	Identical results	Moderate inhibition of CyclinD1 phosphorylation		6.3	Identical results	activation of NFAT response ([8]; 1 to 10 μM): only effective at the highest concentration tested; logP at 15 min [9]: 1.72
C[C@@H]1O[C@@H](Oc2c(-c3cc(O)c(O)c(O)c3)oc3cc(O)cc(O)c3c2=O)[C@H](O)[C@H](O)[C@H]1O [myricitrin, 5,7-dihydroxy-3-[(2S,3R,4R,5R,6S)-3,4,5-trihydroxy-6-methyloxan-2-yl]oxy-2-(3,4,5-trihydroxyphenyl)chromen-4-one]		no influence on DYRK1A activity						
O=c1c(O)c(-c2ccc(O)c(O)c2)oc2cc(O)cc(O)c12 [quercetin, 2-(3,4-dihydroxyphenyl)-3,5,7-trihydroxychromen-4-one]			0.25 to 5 µM	significantly reduced CyclinD1 phosphorylation	threefold		0.25 to 5 µM	effect on insulin level over 12 days [1]: noticeable decrease in insulin level on day 12; effect on insulin level over 12 days [2]: noticeable decrease in insulin level on day 12; Ki-67-positive cells, combination with GLP-1 ([3]; control cells 32%): modest effect; effect on residual DYRK1A activity [5]: decreased DYRK1A activity dose-dependently; IC50 [5]: 1.7 µM; insulin secretion by organoids (GSIS, ELISA), with LY364947 addition [4]: enhanced by LY364947 addition; insulin secretion by organoids (GSIS, ELISA) [4]: significant increase in insulin secretion; LogP [9]: 1.40
C[C@@H]1O[C@@H](OC[C@H]2O[C@@H](Oc3c(-c4ccc(O)c(O)c4)oc4cc(O)cc(O)c4c3=O)[C@H](O)[C@@H](O)[C@@H]2O)[C@H](O)[C@H](O)[C@H]1O [rutin, 2-(3,4-dihydroxyphenyl)-5,7-dihydroxy-3-[(2S,3R,4S,5S,6R)-3,4,5-trihydroxy-6-[[(2R,3R,4R,5R,6S)-3,4,5-trihydroxy-6-methyloxan-2-yl]oxymethyl]oxan-2-yl]oxychromen-4-one]		decreased DYRK1A activity dose-dependently	did not influence cell viability	significantly reduced CyclinD1 phosphorylation	twofold	4.5	did not influence cell viability	cytotoxic effect, combination with LY364947 or GLP-1 [6]: slight cytotoxic effect; LogP [9]: negative logP
COc1ccc(-c2cc(=O)c3c(OC)c(OC)c(OC)cc3o2)cc1OC [sinensetin, 2-(3,4-dimethoxyphenyl)-5,6,7-trimethoxychromen-4-one]		no influence on DYRK1A activity						
GLP-1: GLP-1R agonist	up to 5%							effect on insulin level over 12 days [1]: robust increase in insulin production level in the late stage of the experiment (day 5–12); effect on insulin level over 12 days [2]: robust increase in insulin production level in the late stage of the experiment (day 5–12)
